Columns and labels:
[1] = test system: bedstraw; assay: Test B pre/postemergence bedstraw; assay type: in vivo, Galium aparine
Method in brief: (§1)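 Response is a visual 0-to-10 score relative to untreated plants, where 0 means no effect and 10 means complete control, taken twelve to sixteen days after application. Treatments went onto soil at planting and onto foliage of 1- to 4-leaf plants, using a surfactant-containing non-phytotoxic solvent.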

[2] = test system: surinam grass; assay: Test B pre/postemergence surinam grass; assay type: in vivo, Brachiaria decumbens
Method in brief: as §1

[3] = test system: duck salad; assay: Test B flood test duck salad; assay type: in vivo, Heteranthera limosa
Method in brief: (§2)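 Read-out is a visual response score from 0 (no effect) to 10 (complete control), assigned by comparison with untreated controls. Treatment was applied at the 2-leaf stage, and plants stayed in the greenhouse for twelve to sixteen days before scoring.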

[4] = test system: morningglory; assay: Test B pre/postemergence morningglory; assay type: in vivo, Ipomoea hederacea
Method in brief: as §1

[5] = test system: velvetleaf; assay: Test B pre/postemergence velvetleaf; assay type: in vivo, Abutilon theophrasti
Method in brief: as §1

[6] = test system: wheat; assay: Test B pre/postemergence wheat; assay type: in vivo, Triticum aestivum
Method in brief: as §1

[7] = test system: purple nutsedge; assay: Test B pre/postemergence purple nutsedge; assay type: in vivo, Cyperus rotundus
Method in brief: as §1

[8] = test system: crabgrass; assay: Test B pre/postemergence crabgrass; assay type: in vivo, Digitaria sanguinalis
Method in brief: as §1

[9] = test system: rape; assay: Test B pre/postemergence rape; assay type: in vivo, Brassica napus
Method in brief: as §1

[10] = test system: cocklebur; assay: Test B pre/postemergence cocklebur; assay type: in vivo, Xanthium strumarium
Method in brief: as §1

[11] = test system: corn; assay: Test B pre/postemergence corn; assay type: in vivo, Zea mays
Method in brief: as §1

[12] = test system: blackgrass; assay: Test B pre/postemergence blackgrass; assay type: in vivo, Alopecurus myosuroides
Method in brief: as §1

[13] = test system: sugar beet; assay: Test B pre/postemergence sugar beet; assay type: in vivo, Beta vulgaris
Method in brief: as §1

[14] = test system: smallflower flatsedge; assay: Test B flood test smallflower flatsedge; assay type: in vivo, Cyperus difformis
Method in brief: as §2

[15] = test system: pigweed; assay: Test B pre/postemergence pigweed; assay type: in vivo, Amaranthus retroflexus
Method in brief: as §1

[16] = test system: wild oat; assay: Test B pre/postemergence wild oat; assay type: in vivo, Avena fatua
Method in brief: as §1

[17] = Postemergence, Rate 500 g/ha, scale of 0 to 10 where 0 is no effect and 10 is complete control
[18] = Postemergence, Rate 1000 g/ha, scale 0 to 10 (0 no effect, 10 complete control)
[19] = Preemergence, Rate 125 g/ha, scale of 0 to 10 where 0 is no effect and 10 is complete control
[20] = Preemergence, Rate 500 g/ha, scale of 0 to 10 where 0 is no effect and 10 is complete control
[21] = Rate 1000 g/ha, Preemergence, scale 0 to 10 (0 no effect, 10 complete control)
[22] = Postemergence, Rate 125 g/ha, scale of 0 to 10 where 0 is no effect and 10 is complete control
[23] = Postemergence, Rate 250 g/ha, scale of 0 to 10, 0 is no effect, 10 is complete control
[24] = Pre-emergence, Rate 1000 g/ha, scale 0 to 10 (0 no effect, 10 complete control)
[25] = Rate 125 g/ha, under heading Pre-emergence, flood test species, visual evaluation after twelve to sixteen days
[26] = Rate 250 g/ha, Pre-emergence (flood test species), scale 0 to 10, 0 is no effect, 10 is complete control
[27] = Rate 500 g/ha, Pre-emergence section of Table B, 0 to 10 scale (0 no effect, 10 complete control)

## CCOP(=O)(Cn1c(=O)on(C(=O)N(c2ccc(F)cc2)C(C)C)c1=O)OCC [Compound 587]
[1]; [17]
  Plant response rating, Bedstraw: 3
[1]; [18]
  Bedstraw plant response rating: 7
[1]; [19]
  Bedstraw plant response rating: 0
[1]; [20]
  Bedstraw plant response rating: 2
[1]; [21]
  Plant response rating, Bedstraw: 3
[2]; [22]
  Plant response rating, B. signalgrass: 0
[2]; [23]
  B. signalgrass plant response rating: 0
[2]; [17]
  Plant response rating, B. signalgrass: 0
[2]; [18]
  B. signalgrass plant response rating: 5
[2]; [19]
  B. signalgrass plant response rating: 0
[2]; Preemergence, Rate 250 g/ha
  B. signalgrass plant response rating (0 to 10 scale, 0 is no effect, 10 is complete control): 5
[2]; [20]
  B. signalgrass plant response rating: 7
[2]; [21]
  Plant response rating, B. signalgrass: 10
[3]; [24]
  Ducksalad plant response rating: 0
[3]; [25]
  Ducksalad plant response rating (0 to 10 scale, 0 is no effect, 10 is complete control): 0
[3]; [26]
  Ducksalad plant response rating: 0
[3]; [27]
  Ducksalad plant response rating: 0
[4]; [22]
  Plant response rating, Morningglory: 4
[4]; [23]
  Morningglory plant response rating: 6
[4]; [17]
  Plant response rating, Morningglory: 7
[4]; [18]
  Morningglory plant response rating: 9
[4]; [19]
  Morningglory plant response rating: 0
[4]; [20]
  Morningglory plant response rating: 0
[4]; [21]
  Plant response rating, Morningglory: 3
[5]; [22]
  Plant response rating, Velvetleaf: 0
[5]; [23]
  Velvetleaf plant response rating: 0
[5]; [17]
  Plant response rating, Velvetleaf: 0
[5]; [18]
  Velvetleaf plant response rating: 2
[5]; [19]
  Velvetleaf plant response rating: 0
[5]; [20]
  Velvetleaf plant response rating: 2
[5]; [21]
  Plant response rating, Velvetleaf: 4
[6]; [22]
  Plant response rating, Wheat: 0
[6]; [23]
  Wheat plant response rating: 0
[6]; [17]
  Plant response rating, Wheat: 0
[6]; [18]
  Wheat plant response rating: 3
[6]; [19]
  Wheat plant response rating: 0
[6]; [20]
  Wheat plant response rating: 3
[6]; [21]
  Plant response rating, Wheat: 7
[7]; [22]
  Plant response rating, Nutsedge: 0
[7]; [23]
  Nutsedge plant response rating: 0
[7]; [17]
  Plant response rating, Nutsedge: 0
[7]; [18]
  Nutsedge plant response rating: 0
[7]; [19]
  Nutsedge plant response rating: 0
[7]; [20]
  Nutsedge plant response rating: 0
[7]; [21]
  Plant response rating, Nutsedge: 0
[8]; [22]
  Plant response rating, Crabgrass: 0
[8]; [17]
  Plant response rating, Crabgrass: 2
[8]; [18]
  Crabgrass plant response rating: 3
[8]; [19]
  Crabgrass plant response rating: 6
[8]; [20]
  Crabgrass plant response rating: 9
[8]; [21]
  Plant response rating, Crabgrass: 10
[9]; [22]
  Plant response rating, Rape: 0
[9]; [23]
  Rape plant response rating: 0
[9]; [17]
  Plant response rating, Rape: 0
[9]; [18]
  Rape plant response rating: 0
[9]; [19]
  Rape plant response rating: 0
[9]; [20]
  Rape plant response rating: 1
[9]; [21]
  Plant response rating, Rape: 2
[10]; [22]
  Plant response rating, Cocklebur: 0
[10]; [23]
  Cocklebur plant response rating: 0
[10]; [17]
  Plant response rating, Cocklebur: 0
[10]; [18]
  Cocklebur plant response rating: 0
[10]; [19]
  Cocklebur plant response rating: 0
[10]; Preemergence, Rate 250 g/ha
  Cocklebur plant response rating (0 to 10 scale): 0
[10]; [20]
  Cocklebur plant response rating: 0
[10]; [21]
  Plant response rating, Cocklebur: 0
[11]; [22]
  Plant response rating, Corn: 0
[11]; [23]
  Corn plant response rating: 0
[11]; [17]
  Plant response rating, Corn: 0
[11]; [18]
  Corn plant response rating: 0
[11]; [19]
  Corn plant response rating: 0
[11]; Preemergence, Rate 250 g/ha
  Corn plant response rating (0 to 10 scale): 0
[11]; [20]
  Corn plant response rating: 0
[11]; [21]
  Plant response rating, Corn: 4
[12]; [22]
  Plant response rating, Blackgrass: 3
[12]; [23]
  Blackgrass plant response rating: 3
[12]; [17]
  Plant response rating, Blackgrass: 6
[12]; [19]
  Blackgrass plant response rating: 3
[12]; Preemergence, Rate 250 g/ha
  Blackgrass plant response rating (0 to 10 scale): 6
[12]; [20]
  Blackgrass plant response rating: 8
[12]; [21]
  Plant response rating, Blackgrass: 10
[13]; [22]
  Plant response rating, Sugarbeets: 0
[13]; [23]
  Sugarbeets plant response rating: 0
[13]; [17]
  Plant response rating, Sugarbeets: 0
[13]; [18]
  Sugarbeets plant response rating: 0
[13]; [19]
  Sugarbeets plant response rating: 0
[13]; [20]
  Sugarbeets plant response rating: 0
[13]; [21]
  Plant response rating, Sugarbeets: 3
[14]; [24]
  S. Flatsedge plant response rating: 0
[14]; [25]
  S. Flatsedge plant response rating (0 to 10 scale, 0 is no effect, 10 is complete control): 0
[14]; [26]
  S. Flatsedge plant response rating: 0
[14]; [27]
  S. Flatsedge plant response rating: 0
[15]; [22]
  Plant response rating, Redroot pigweed: 0
[15]; [23]
  Redroot pigweed plant response rating: 0
[15]; [17]
  Plant response rating, Redroot pigweed: 0
[15]; [18]
  Redroot pigweed plant response rating: 0
[15]; [19]
  Redroot pigweed plant response rating: 0
[15]; [20]
  Redroot pigweed plant response rating: 2
[15]; [21]
  Plant response rating, Redroot pigweed: 3
[16]; [22]
  Plant response rating, Wild oats: 0
[16]; [23]
  Wild oats plant response rating: 0
[16]; [17]
  Plant response rating, Wild oats: 0
[16]; [18]
  Wild oats plant response rating: 0
[16]; [19]
  Wild oats plant response rating: 2
[16]; [20]
  Wild oats plant response rating: 9
[16]; [21]
  Plant response rating, Wild oats: 10

— patent publication US6737383B1, “Herbicidal oxadiazolidines” (priority 1999, dated 2004)
